According to ChEMBL document CHEMBL5523746, “Discovery of Novel Peptide Antagonists Targeting GPR55 for Liver Inflammation and Fibrosis” (2024):
Active and inactive are the calls of the source. The rule behind the calls is not given here. Bridge positions count the residues as written; N and C are the ends. Peptide text beside a SMILES is read from it.

Columns and labels:
LX-2 = assay: Anti-fibrotic activity in human LX2 cells assessed as reduction in COL1alpha expression by measuring relative inhibition rate measured after 24 hrs incubation by Western blot analysis relative to control; format: functional; parameters: concentration or dose not given beside the values
Mus musculus [1] = assay: In vivo anti-fibrotic activity against methionine and choline-deficient (MCD) diet-induced liver fibrosis C57BL/6J mouse model assessed as reduction in oxidative stress by measuring decrease in lipid oxidation product MDA at 150 to 300 microg/kg once daily for 3 weeks by enzyme activity assay; format: functional, organism-based; details: dose 150-300 µg/kg
Mus musculus [2] = assay: In vivo anti-fibrotic activity against CCl4-induced liver fibrosis C57BL/6J mouse model assessed as liver function by measuring decrease in amino-transferase (ALT) at 150 to 300 microg/kg once daily for 3 weeks by Western blot analysis; format: functional, organism-based; details: dose 150-300 µg/kg
Mus musculus [3] = assay: Reduction in fatty acid synthesis related gene expression in methionine and choline-deficient (MCD) diet-induced liver fibrosis C57BL/6J mouse model assessed as reduction in SCD1 mRNA level at 150 to 300 microg/kg once daily for 3 weeks by qPCR analysis; format: functional, organism-based; details: dose 150-300 µg/kg
Mus musculus [4] = assay: In vivo anti-fibrotic activity against methionine and choline-deficient (MCD) diet-induced liver fibrosis C57BL/6J mouse model assessed as decrease in inflammatory infiltration and collagen deposition at 150 to 300 microg/kg once daily for 3 weeks by Sirius Red staining based assay; format: functional, organism-based; details: dose 150-300 µg/kg
Mus musculus [5] = assay: In vivo anti-fibrotic activity against methionine and choline-deficient (MCD) diet-induced liver fibrosis C57BL/6J mouse model assessed as reduction in inflammation by measuring decrease in CD68 inflammation marker at 150 to 300 microg/kg once daily for 3 weeks by IHC staining based assay; format: functional, organism-based; details: dose 150-300 µg/kg
Mus musculus [6] = assay: In vivo anti-fibrotic activity against CCl4-induced liver fibrosis C57BL/6J mouse model assessed as decrease in pro-apoptotic protein caspase-8 level at 300 microg/kg once daily for 3 weeks by Western blot analysis; format: functional, organism-based; details: dose 300.0 µg/kg
Mus musculus [7] = assay: In vivo anti-fibrotic activity against CCl4-induced liver fibrosis C57BL/6J mouse model assessed as decrease in steatosis and inflammation at 150 to 300 microg/kg once daily for 3 weeks by H and E staining based assay; format: functional, organism-based; details: dose 150-300 µg/kg
Mus musculus [8] = assay: In vivo anti-fibrotic activity against CCl4-induced liver fibrosis C57BL/6J mouse model assessed as decrease in inflammation at 150 to 300 microg/kg once daily for 3 weeks by IHC staining based assay; format: functional, organism-based; details: dose 150-300 µg/kg
Mus musculus [9] = assay: In vivo anti-fibrotic activity against CCl4-induced liver fibrosis C57BL/6J mouse model assessed as reduction in hepatocyte apoptosis at 300 microg/kg once daily for 3 weeks by TUNEL assay; format: functional, organism-based; details: dose 300.0 µg/kg
Mus musculus [10] = assay: In vivo anti-fibrotic activity against methionine and choline-deficient (MCD) diet-induced liver fibrosis C57BL/6J mouse model assessed as reduction in oxidative stress by measuring increase in catalase at 150 to 300 microg/kg once daily for 3 weeks by enzyme activity assay; format: functional, organism-based; details: dose 150-300 µg/kg
Mus musculus [11] = assay: Induction of fatty acid beta-oxidation related gene expression in methionine and choline-deficient (MCD) diet-induced liver fibrosis C57BL/6J mouse model assessed as increase in […] mRNA level at 150 to 300 microg/kg once daily for 3 weeks by qPCR analysis; format: functional, organism-based; details: dose 150-300 µg/kg
Mus musculus [12] = assay: In vivo anti-fibrotic activity against CCl4-induced liver fibrosis C57BL/6J mouse model assessed as reduction in oxidative stress by measuring increase in catalase at 150 to 300 microg/kg once daily for 3 weeks by enzyme activity assay; format: functional, organism-based; details: dose 150-300 µg/kg
Mus musculus [13] = assay: Induction of fatty acid beta-oxidation related gene expression in methionine and choline-deficient (MCD) diet-induced liver fibrosis C57BL/6J mouse model assessed as increase in MCAD mRNA level at 150 to 300 microg/kg once daily for 3 weeks by qPCR analysis; format: functional, organism-based; details: dose 150-300 µg/kg
Mus musculus [14] = assay: In vivo anti-fibrotic activity against methionine and choline-deficient (MCD) diet-induced liver fibrosis C57BL/6J mouse model assessed as reduction in hepatocyte apoptosis at 150 to 300 microg/kg once daily for 3 weeks by TUNEL assay; format: functional, organism-based; details: dose 150-300 µg/kg
Mus musculus [15] = assay: In vivo anti-fibrotic activity against CCl4-induced liver fibrosis C57BL/6J mouse model assessed as reduction in oxidative stress by measuring decrease in lipid oxidation product MDA at 150 to 300 microg/kg once daily for 3 weeks by enzyme activity assay; format: functional, organism-based; details: dose 150-300 µg/kg
Mus musculus [16] = assay: Reduction in fatty acid synthesis related gene expression in methionine and choline-deficient (MCD) diet-induced liver fibrosis C57BL/6J mouse model assessed as reduction in FAS mRNA level at 150 to 300 microg/kg once daily for 3 weeks by qPCR analysis; format: functional, organism-based; details: dose 150-300 µg/kg
Mus musculus [17] = assay: In vivo anti-fibrotic activity against CCl4-induced liver fibrosis C57BL/6J mouse model assessed as liver function by measuring decrease in serum amino-transferase (ALT) at 150 to 300 microg/kg once daily for 3 weeks by bio-chemical analysis; format: functional, organism-based; details: dose 150-300 µg/kg
Mus musculus [18] = assay: In vivo anti-fibrotic activity against methionine and choline-deficient (MCD) diet-induced liver fibrosis C57BL/6J mouse model assessed as reduction in ROS treated at 150 to 300 microg/kg once daily for 3 weeks by qPCR analysis; format: functional, organism-based; details: dose 150-300 µg/kg
Mus musculus [19] = assay: In vivo anti-fibrotic activity against CCl4-induced liver fibrosis C57BL/6J mouse model assessed as reduction in ROS treated once daily for 3 weeks by RT-qPCR analysis; format: functional, organism-based; details: dose 150-300 µg/kg
Mus musculus [20] = assay: In vivo anti-fibrotic activity against CCl4-induced liver fibrosis C57BL/6J mouse model assessed as reduction in hepatocyte apoptosis by measuring decrease in BAX protein level at 300 microg/kg once daily for 3 weeks by TUNEL assay; format: functional, organism-based; details: dose 300.0 µg/kg
Mus musculus [21] = assay: In vivo anti-fibrotic activity against CCl4-induced liver fibrosis C57BL/6J mouse model assessed as increase in anti-apoptotic protein BCL2 level at 300 microg/kg once daily for 3 weeks by Western blot analysis; format: functional, organism-based; details: dose 300.0 µg/kg
Mus musculus [22] = assay: Induction of fatty acid beta-oxidation related gene expression in methionine and choline-deficient (MCD) diet-induced liver fibrosis C57BL/6J mouse model assessed as increase in PGC1A mRNA level at 150 to 300 microg/kg once daily for 3 weeks by qPCR analysis; format: functional, organism-based; details: dose 150-300 µg/kg
Mus musculus [23] = assay: In vivo anti-fibrotic activity against CCl4-induced liver fibrosis C57BL/6J mouse model assessed as reduction in Acta2 mRNA level at 150 to 300 microg/kg once daily for 3 weeks by RT-qPCR analysis; format: functional, organism-based; details: dose 150-300 µg/kg
Mus musculus [24] = assay: In vivo anti-fibrotic activity against CCl4-induced liver fibrosis C57BL/6J mouse model assessed as decrease in pro-apoptotic protein BIM level at 300 microg/kg once daily for 3 weeks by Western blot analysis; format: functional, organism-based; details: dose 300.0 µg/kg
Mus musculus [25] = assay: In vivo anti-fibrotic activity against CCl4-induced liver fibrosis C57BL/6J mouse model assessed as liver function by measuring decrease in serum hydroxyproline (HYP) at 150 to 300 microg/kg once daily for 3 weeks by bio-chemical analysis; format: functional, organism-based; details: dose 150-300 µg/kg
Mus musculus [26] = assay: In vivo anti-fibrotic activity against CCl4-induced liver fibrosis C57BL/6J mouse model assessed as decrease in COL1alpha at 150 to 300 microg/kg once daily for 3 weeks by IHC staining based assay; format: functional, organism-based; details: dose 150-300 µg/kg
Mus musculus [27] = assay: Induction of fatty acid beta-oxidation related gene expression in methionine and choline-deficient (MCD) diet-induced liver fibrosis C57BL/6J mouse model assessed as increase in ACOX mRNA level at 150 to 300 microg/kg once daily for 3 weeks by qPCR analysis; format: functional, organism-based; details: dose 150-300 µg/kg

## CC[C@H](C)[C@@H]1NC(=O)[C@H]([C@@H](C)O)NC(=O)[C@@H]2CCCN2C(=O)[C@H](CO)NC(=O)[C@H](CC(N)=O)NC(=O)[C@H](CCCCN)NC(=O)[C@H](CCCCN)NC(=O)[C@@H](N)CSSC[C@@H](C(=O)O)NC1=O (H-CKKNSPTIC-OH; disulfide 1-9)
LX-2
  Activity: 40%
Mus musculus [1]
  Activity: Active
Mus musculus [2]
  Activity: Active
Mus musculus [3]
  Activity: Active
Mus musculus [4]
  Activity: Active
Mus musculus [5]
  Activity: Active
Mus musculus [6]
  Activity: Active
Mus musculus [7]
  Activity: Active
Mus musculus [8]
  Activity: Active
Mus musculus [9]
  Activity: Active
Mus musculus [10]
  Activity: Active
Mus musculus [11]
  Activity: Active
Mus musculus [12]
  Activity: Active
Mus musculus [13]
  Activity: Active
Mus musculus [14]
  Activity: Active
Mus musculus [15]
  Activity: Active
Mus musculus [16]
  Activity: Active
Mus musculus [17]
  Activity: Active
Mus musculus [18]
  Activity: Active
Mus musculus [19]
  Activity: Active
Mus musculus [20]
  Activity: Active
Mus musculus [21]
  Activity: Active
Mus musculus [22]
  Activity: Active
Mus musculus [23]
  Activity: Active
Mus musculus [24]
  Activity: Active
Mus musculus [25]
  Activity: Active
Mus musculus [26]
  Activity: Active
Mus musculus [27]
  Activity: Active
